Experimental data taken from the CheMixHub viscosity set.

Test: xn = mol fraction of the nth substance listed

O=Cc1ccccc1 + CCO
298.15 K, 101.33 kPa
Settings | viscosity [mPa·s]
x1 = 0.05414 | 1.092
x1 = 0.08518 | 1.052
x1 = 0.1016 | 1.05
x1 = 0.1182 | 1.051
x1 = 0.1595 | 1.031
x1 = 0.1727 | 1.041
x1 = 0.3372 | 1.158
x1 = 0.6248 | 1.308
x1 = 0.8076 | 1.362

Cc1ccc(C)cc1 + CCOC(C)=O
Settings | viscosity [mPa·s]
298.15 K, 101 kPa, x2 = 0.044 | 0.601
298.15 K, 101 kPa, x2 = 0.1503 | 0.572
298.15 K, 101 kPa, x2 = 0.2506 | 0.547
298.15 K, 101 kPa, x2 = 0.3502 | 0.525
298.15 K, 101 kPa, x2 = 0.4374 | 0.507
298.15 K, 101 kPa, x2 = 0.4986 | 0.496
298.15 K, 101 kPa, x2 = 0.5505 | 0.487
298.15 K, 101 kPa, x2 = 0.6473 | 0.472
298.15 K, 101 kPa, x2 = 0.7519 | 0.457
298.15 K, 101 kPa, x2 = 0.8485 | 0.444
298.15 K, 101 kPa, x2 = 0.9426 | 0.434
303.15 K, 101.32 kPa, x2 = 0.0624 | 0.555
303.15 K, 101.32 kPa, x2 = 0.1828 | 0.534
303.15 K, 101.32 kPa, x2 = 0.2938 | 0.516
303.15 K, 101.32 kPa, x2 = 0.4031 | 0.498
303.15 K, 101.32 kPa, x2 = 0.5056 | 0.481
303.15 K, 101.32 kPa, x2 = 0.552 | 0.474
303.15 K, 101.32 kPa, x2 = 0.6041 | 0.465
303.15 K, 101.32 kPa, x2 = 0.6976 | 0.45
303.15 K, 101.32 kPa, x2 = 0.7887 | 0.436
303.15 K, 101.32 kPa, x2 = 0.8757 | 0.423
303.15 K, 101.32 kPa, x2 = 0.9585 | 0.411
308.15 K, 101 kPa, x2 = 0.044 | 0.527
308.15 K, 101 kPa, x2 = 0.1503 | 0.506
308.15 K, 101 kPa, x2 = 0.2506 | 0.488
308.15 K, 101 kPa, x2 = 0.3502 | 0.471
308.15 K, 101 kPa, x2 = 0.4374 | 0.457
308.15 K, 101 kPa, x2 = 0.4986 | 0.448
308.15 K, 101 kPa, x2 = 0.5505 | 0.44
308.15 K, 101 kPa, x2 = 0.6473 | 0.427
308.15 K, 101 kPa, x2 = 0.7519 | 0.414
308.15 K, 101 kPa, x2 = 0.8485 | 0.403
308.15 K, 101 kPa, x2 = 0.9426 | 0.393
313.15 K, 101.32 kPa, x2 = 0.2063 | 0.481
313.15 K, 101.32 kPa, x2 = 0.4077 | 0.45
313.15 K, 101.32 kPa, x2 = 0.5061 | 0.435
313.15 K, 101.32 kPa, x2 = 0.5991 | 0.423
313.15 K, 101.32 kPa, x2 = 0.8016 | 0.395

[Cl-].[Cl-].[Cl-].[Cl-].[Ge+4] + CCOC(C)=O
viscosity [mPa·s], 101 kPa
Settings | x2 = 0.1475 | x2 = 0.3162 | x2 = 0.5235 | x2 = 0.6703 | x2 = 0.8062
293.15 K | 0.576 | 0.535 | 0.5 | 0.481 | 0.469
303.15 K | 0.531 | 0.486 | 0.457 | 0.431 | 0.416
313.15 K | 0.481 | 0.449 | 0.406 | 0.39 | 0.382

[Cl-].[Cl-].[Cl-].[Cl-].[Ge+4] + CCOCC
293.15 K, 101 kPa
Settings | viscosity [mPa·s]
x2 = 0.2064 | 0.5
x2 = 0.4027 | 0.415
x2 = 0.5137 | 0.376
x2 = 0.6832 | 0.309
x2 = 0.7964 | 0.279

CCCCCCCCN + CCOCCO
308.15 K, 101 kPa
Settings | viscosity [mPa·s]
x2 = 0.1595 | 1.136
x2 = 0.4226 | 1.512
x2 = 0.5324 | 1.655
x2 = 0.6307 | 1.75
x2 = 0.7193 | 1.725
x2 = 0.7994 | 1.654
x2 = 0.8723 | 1.568
x2 = 0.9389 | 1.497

O=Cc1ccccc1 + CCc1ccccc1
viscosity [mPa·s], 101 kPa
Settings | x1 = 0.1197 | x1 = 0.2343 | x1 = 0.3441 | x1 = 0.4494 | x1 = 0.5504 | x1 = 0.6474 | x1 = 0.7407 | x1 = 0.8304 | x1 = 0.9168
303.15 K | 0.6517 | 0.704 | 0.7588 | 0.8174 | 0.882 | 0.9577 | 1.043 | 1.13 | 1.203
308.15 K | 0.6199 | 0.6713 | 0.7283 | 0.7882 | 0.8554 | 0.93 | 1.014 | 1.102 | 1.181
313.15 K | 0.584 | 0.6318 | 0.691 | 0.7573 | 0.8273 | 0.9007 | 0.9837 | 1.07 | 1.158

CC(O)C(C)O (configuration not stated) + CN1CCCC1=O
308.15 K, 101 kPa
Settings | viscosity [mPa·s]
x1 = 0.0282 | 1.924
x1 = 0.0534 | 2.003
x1 = 0.1001 | 2.405
x1 = 0.1968 | 2.91
x1 = 0.295 | 3.344
x1 = 0.3939 | 4.159
x1 = 0.4746 | 5.033
x1 = 0.5881 | 7.256
x1 = 0.6924 | 8.758
x1 = 0.7916 | 13.58
x1 = 0.8948 | 23.29
x1 = 0.9431 | 32.45
x1 = 0.973 | 39.91

CC(O)C(C)O (configuration not stated) + CN(C)C=O
308.15 K, 101 kPa
Settings | viscosity [mPa·s]
x1 = 0.0509 | 0.724
x1 = 0.1003 | 0.859
x1 = 0.1898 | 1.033
x1 = 0.2855 | 1.36
x1 = 0.3729 | 1.788
x1 = 0.4785 | 2.544
x1 = 0.5949 | 5.332
x1 = 0.6808 | 8.504
x1 = 0.7219 | 10.79
x1 = 0.8883 | 24.97
x1 = 0.942 | 34.78

C[N+](C)(C)CCO.[Cl-] + CN(CCO)CCO
viscosity [mPa·s], 101 kPa
Settings | x1 = 0.091 | x1 = 0.111 | x1 = 0.143
293.15 K | 54.54 | 126.3 | 139.8
313.15 K | 20.45 | 40.89 | 46.55

Cc1ccc(C)cc1 + CO
viscosity [mPa·s], 101 kPa
Settings | x1 = 0.0352 | x1 = 0.0758 | x1 = 0.1233 | x1 = 0.1795 | x1 = 0.247 | x1 = 0.3298 | x1 = 0.4336 | x1 = 0.5673 | x1 = 0.747
293.15 K | 0.6087 | 0.6353 | 0.6635 | 0.6929 | 0.7227 | 0.7509 | 0.7731 | 0.7803 | 0.7526
298.15 K | 0.5596 | 0.5732 | 0.5877 | 0.6031 | 0.6191 | 0.6348 | 0.6483 | 0.656 | 0.6489
308.15 K | 0.4893 | 0.4993 | 0.5103 | 0.522 | 0.5342 | 0.5465 | 0.558 | 0.5669 | 0.5649
318.15 K | 0.4296 | 0.4369 | 0.4449 | 0.4536 | 0.4628 | 0.4725 | 0.4823 | 0.4899 | 0.4933

O=C(O)CCC(=O)O + CO
viscosity [mPa·s], 101 kPa
Settings | 308.15 K | 313.15 K | 318.15 K | 323.15 K
x1 = 0.04258 | 0.8055 | 0.7491 | 0.6981 | 0.646
x1 = 0.05573 | 0.9556 | 0.887 | 0.8175 | 0.7603

O=C(O)c1ccccc1C(=O)O + CO
viscosity [mPa·s]
Settings | 308.15 K | 313.15 K | 318.15 K | 323.15 K
101 kPa, x1 = 0.0453 | 0.916 | – | – | 0.7018
101 kPa, x1 = 0.0538 | 1.001 | – | – | 0.79
101 kPa, x1 = 0.0598 | 1.085 | – | – | 0.8526
101 kPa, x1 = 0.0666 | 1.226 | – | – | 0.906
101.33 kPa, x1 = 0.0453 | 0.916 | 0.8445 | 0.777 | 0.718
101.33 kPa, x1 = 0.06 | 1.085 | 1.009 | 0.9326 | 0.8526

c1ccc(Nc2ccccc2)cc1 + CO
viscosity [mPa·s]
Settings | 298.15 K | 303.15 K | 308.15 K | 313.15 K | 318.15 K
101 kPa, x1 = 0.03649 | 0.814 | 0.739 | 0.6818 | 0.6313 | 0.584
101 kPa, x1 = 0.06942 | 1.012 | 0.9262 | 0.8495 | 0.7809 | 0.7151
101.33 kPa, x1 = 0.04 | 0.814 | 0.739 | 0.6818 | 0.6313 | 0.584
101.33 kPa, x1 = 0.0694 | 1.012 | 0.9262 | 0.8495 | 0.7809 | 0.7151
